Among the data in ChEMBL document CHEMBL1165921, “New potent inhibitors of tyrosinase: novel clues to binding of 1,3,4-thiadiazole-2(3H)-thiones, 1,3,4-oxadiazole-2(3H)-thiones, 4-amino-1,2,4-triazole-5(4H)-thiones, and substituted hydrazides to the dicopper active site” (Bioorg Med Chem, 2010) are Ki values, retold here.

The assay has as its target T1, Tyrosinase (Agaricus bisporus, UniProt O42713).
T1 sequence (O42713 whole entry): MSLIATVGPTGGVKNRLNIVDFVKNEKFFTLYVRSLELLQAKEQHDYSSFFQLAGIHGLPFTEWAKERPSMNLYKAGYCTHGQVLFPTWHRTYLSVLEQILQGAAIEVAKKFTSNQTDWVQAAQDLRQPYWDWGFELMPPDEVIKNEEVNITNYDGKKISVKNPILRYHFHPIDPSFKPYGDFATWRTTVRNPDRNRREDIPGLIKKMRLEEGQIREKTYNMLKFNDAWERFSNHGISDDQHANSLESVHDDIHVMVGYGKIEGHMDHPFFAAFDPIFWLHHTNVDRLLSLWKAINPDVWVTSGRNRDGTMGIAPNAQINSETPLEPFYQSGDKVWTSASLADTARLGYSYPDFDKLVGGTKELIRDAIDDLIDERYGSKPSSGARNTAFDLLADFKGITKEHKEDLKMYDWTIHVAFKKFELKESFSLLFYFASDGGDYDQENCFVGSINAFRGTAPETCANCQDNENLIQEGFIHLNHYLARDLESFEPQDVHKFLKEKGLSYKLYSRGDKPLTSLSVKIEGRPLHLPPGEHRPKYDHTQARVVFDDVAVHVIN

One may read the Ki as the equilibrium dissociation constant of an inhibitor or competing ligand from its target.

The structures appear in SMILES notation.

Description: Inhibition of mashroom tyrosinase

On to `Nn1c(-c2ccc(O)cc2)n[nH]c1=S`, for which the Ki amounted to 2.4 µM.

`S=c1[nH]nc(-c2n[nH]c(=S)s2)s1`: the affinity, expressed as Ki, was 2.9 µM. Then `S=c1[nH]nc(-c2ccccc2)o1`, with 6.47 µM. In turn, `Sc1nnc(Cc2ccccc2)o1` displayed a Ki of 3.67 µM. Then `NNC(=O)c1ccc(OCc2ccccc2)cc1`, with 49 µM.

As to `S=c1[nH]nc(-c2n[nH]c(=S)o2)o1`, the Ki turned out to be 69.4 µM. Then `S=c1[nH]nc(-c2cccc3ccccc23)o1`, with 33.6 µM; and `NNC(=O)c1ccc(O)cc1`, with 177 µM; and `NNC(=O)c1ccc2ccccc2c1`, with 99.6 µM.

For the compound `Oc1ccc(-c2nnc(S)o2)cc1`, affinity was put at a Ki of 1.77 µM. This Ki is about 56-fold lower than that of the compound before. With `S=c1[nH]nc(C2CCCCC2)o1` the figure was 4.94 µM; with `Nn1c(-c2ccncc2)n[nH]c1=S`, 1.01 µM. Then `Sc1nnc(-c2ccncc2)o1`, with 14.2 µM; and `S=c1[nH]nc(C(c2ccccc2)c2ccccc2)s1`, with 5.2 µM. With `Sc1nnc(C(c2ccccc2)c2ccccc2)o1` the figure was 6.76 µM; with `Sc1nnc(CCCc2nnc(S)o2)o1`, 1.9 µM; with `Sc1nnc(-c2cccc(OCc3ccccc3)c2)o1`, 3.64 µM.

Compound `Sc1nnc(Cc2nnc(S)s2)s1` displayed a Ki of 0.49 µM. With `Oc1cccc(-c2nnc(S)o2)c1` the figure was 18.5 µM. With `CC(C)(C)[Si](C)(C)Oc1ccc(-c2nnc(S)s2)cc1` the figure was 0.53 µM; with `Oc1ccc(-c2nnc(S)s2)cc1`, 0.19 µM. For `S=c1[nH]nc(-c2ccncc2)s1`, the Ki was determined as 2.47 µM. Then `Sc1nnc(-c2ccccc2)s1`, with 1.31 µM; and `S=c1[nH]nc(-c2ccc(OCc3ccccc3)cc2)o1`, with 1.35 µM; and `Sc1nnc(Cc2nnc(S)o2)o1`, with 4.42 µM.
